# How the values were obtained:
# [1] = compound: T1, CCOc1cc2ncc(C#N)c(Nc3ccc(OCc4ccccn4)c(Cl)c3)c2cc1NC(=O)/C=C/CN(C)C [Neratinib/HKI272]; assay: GR value, 72 h; higher = faster growth (1 = untreated, <0 = killing);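 note: breast cancer and non-malignant breast epithelial lines, nine half-log doses, viable cells counted by Hoechst and LIVE/DEAD dye imaging versus time-zero plates and DMSO controls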
# [2] = compound: T2, CN1CC[C@H](c2c(O)cc(O)c3c(=O)cc(-c4ccccc4Cl)oc23)[C@H](O)C1 [Flavopiridol]; assay: as above
# [3] = compound: C=CC(=O)Nc1ccc(C(=O)Nc2[nH]nc3c2CN(C(=O)N[C@H](CN(C)C)c2ccccc2)C3(C)C)cc1 [YKL-5-124]; assay: increase in dead-cell fraction, 72 h; higher = more death;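 note: breast cancer cell lines in 384-well plates, stained with Hoechst plus LIVE/DEAD far red dye and imaged, cells above an LDR intensity threshold counted dead, Hoechst-negative corpses included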
# [4] = compound: CCc1cnn2c(NCc3ccc[n+]([O-])c3)cc(N3CCCC[C@H]3CCO)nc12; assay: as above
# [5] = compound: CC(=O)c1c(C)c2cnc(Nc3ccc(N4CCN(CCOCCOCCOCCNC(=O)COc5cccc6c5C(=O)N(C5CCC(=O)NC5=O)C6=O)CC4)cn3)nc2n(C2CCCC2)c1=O [BSJ-03-123]; assay: as above
# [6] = compound: T1, Neratinib/HKI272; assay: as above
# [7] = compound: CN(C)C(=O)c1cc2cnc(Nc3ccc(N4CCNCC4)cn3)nc2n1C1CCCC1 [LEE011/Ribociclib]; assay: as above
# [8] = compound: CN(C)C/C=C/C(=O)Nc1ccc(C(=O)Nc2cccc(Nc3ncc(Cl)c(-c4c[nH]c5ccccc45)n3)c2)cc1 [THZ1]; assay: as above
# [9] = compound: T2, Flavopiridol; assay: as above
# [10] = compound: CN(C)C/C=C/C(=O)Nc1ccc(C(=O)N2CCC[C@@H](Nc3ncc(Cl)c(-c4c[nH]c5ccccc45)n3)C2)cc1 [THZ531]; assay: as above
# [11] = compound: CCN1CCN(Cc2ccc(Nc3ncc(F)c(-c4cc(F)c5nc(C)n(C(C)C)c5c4)n3)nc2)CC1; assay: as above
# [12] = compound: CC(=O)c1c(C)c2cnc(Nc3ccc(N4CCNCC4)cn3)nc2n(C2CCCC2)c1=O; assay: as above
cell line,measurement,setting,value
HCC202,GR value,[1]; 0.0003162 µM,1.05 GR
same,GR value,[1]; 0.001 µM,0.953 GR
same,GR value,[1]; 0.003162 µM,0.901 GR
same,GR value,[1]; 0.01 µM,0.709 GR
same,GR value,[1]; 0.03162 µM,0.491 GR
same,GR value,[1]; 0.1 µM,0.325 GR
same,GR value,[1]; 0.3162 µM,0.214 GR
same,GR value,[1]; 1 µM,0.194 GR
same,GR value,[1]; 3.162 µM,0.0934 GR
same,GR value,[2]; 0.0001 µM,1.09 GR
same,GR value,[2]; 0.0003162 µM,1.05 GR
same,GR value,[2]; 0.001 µM,0.845 GR
same,GR value,[2]; 0.003162 µM,0.773 GR
same,GR value,[2]; 0.01 µM,0.976 GR
same,GR value,[2]; 0.03162 µM,0.893 GR
same,GR value,[2]; 0.1 µM,0.68 GR
same,GR value,[2]; 0.3162 µM,0.24 GR
same,GR value,[2]; 1 µM,0.0609 GR
same,increase in dead-cell fraction,[3]; 0.001 µM,0.0491
same,increase in dead-cell fraction,[3]; 0.003162 µM,0.0507
same,increase in dead-cell fraction,[3]; 0.01 µM,0.0643
same,increase in dead-cell fraction,[3]; 0.03162 µM,0.0596
same,increase in dead-cell fraction,[3]; 0.1 µM,0.0803
same,increase in dead-cell fraction,[3]; 0.3162 µM,0.0716
same,increase in dead-cell fraction,[3]; 1 µM,0.0671
same,increase in dead-cell fraction,[3]; 3.162 µM,0.081
same,increase in dead-cell fraction,[3]; 10 µM,0.213
same,increase in dead-cell fraction,[4]; 0.0001 µM,0.0056
same,increase in dead-cell fraction,[4]; 0.0003162 µM,0.0103
same,increase in dead-cell fraction,[4]; 0.001 µM,-0.0029
same,increase in dead-cell fraction,[4]; 0.003162 µM,-0.0193
same,increase in dead-cell fraction,[4]; 0.01 µM,-0.0112
same,increase in dead-cell fraction,[4]; 0.03162 µM,0.132
same,increase in dead-cell fraction,[4]; 0.1 µM,0.106
same,increase in dead-cell fraction,[4]; 0.3162 µM,0.122
same,increase in dead-cell fraction,[4]; 1 µM,0.126
same,increase in dead-cell fraction,[5]; 0.001 µM,0.0092
same,increase in dead-cell fraction,[5]; 0.003162 µM,0.0099
same,increase in dead-cell fraction,[5]; 0.01 µM,0.0404
same,increase in dead-cell fraction,[5]; 0.03162 µM,0.0154
same,increase in dead-cell fraction,[5]; 0.1 µM,0.0009
same,increase in dead-cell fraction,[5]; 0.3162 µM,0.0019
same,increase in dead-cell fraction,[5]; 1 µM,0.0243
same,increase in dead-cell fraction,[5]; 3.162 µM,0.0201
same,increase in dead-cell fraction,[5]; 10 µM,0.126
same,increase in dead-cell fraction,[6]; 0.0003162 µM,-0.0093
same,increase in dead-cell fraction,[6]; 0.001 µM,-0.0087
same,increase in dead-cell fraction,[6]; 0.003162 µM,0.0183
same,increase in dead-cell fraction,[6]; 0.01 µM,0.0049
same,increase in dead-cell fraction,[6]; 0.03162 µM,0.0466
same,increase in dead-cell fraction,[6]; 0.1 µM,0.0644
same,increase in dead-cell fraction,[6]; 0.3162 µM,0.0996
same,increase in dead-cell fraction,[6]; 1 µM,0.103
same,increase in dead-cell fraction,[6]; 3.162 µM,0.136
same,increase in dead-cell fraction,[7]; 0.001 µM,0.0107
same,increase in dead-cell fraction,[7]; 0.003162 µM,-0.0028
same,increase in dead-cell fraction,[7]; 0.01 µM,0.0035
same,increase in dead-cell fraction,[7]; 0.03162 µM,0.0081
same,increase in dead-cell fraction,[7]; 0.1 µM,0.0043
same,increase in dead-cell fraction,[7]; 0.3162 µM,0.0132
same,increase in dead-cell fraction,[7]; 1 µM,0.0255
same,increase in dead-cell fraction,[7]; 3.162 µM,0.0242
same,increase in dead-cell fraction,[7]; 10 µM,0.0292
same,increase in dead-cell fraction,[8]; 0.0001 µM,0.0041
same,increase in dead-cell fraction,[8]; 0.0003162 µM,-0.0036
same,increase in dead-cell fraction,[8]; 0.001 µM,0.0114
same,increase in dead-cell fraction,[8]; 0.003162 µM,0.0077
same,increase in dead-cell fraction,[8]; 0.01 µM,0.0009
same,increase in dead-cell fraction,[8]; 0.03162 µM,0.0391
same,increase in dead-cell fraction,[8]; 0.1 µM,0.0709
same,increase in dead-cell fraction,[8]; 0.3162 µM,0.103
same,increase in dead-cell fraction,[8]; 1 µM,0.164
same,increase in dead-cell fraction,[9]; 0.0001 µM,0.0217
same,increase in dead-cell fraction,[9]; 0.0003162 µM,-0.005
same,increase in dead-cell fraction,[9]; 0.001 µM,0.0178
same,increase in dead-cell fraction,[9]; 0.003162 µM,-0.0039
same,increase in dead-cell fraction,[9]; 0.01 µM,-0.0121
same,increase in dead-cell fraction,[9]; 0.03162 µM,0.0154
same,increase in dead-cell fraction,[9]; 0.1 µM,0.0477
same,increase in dead-cell fraction,[9]; 0.3162 µM,0.115
same,increase in dead-cell fraction,[9]; 1 µM,0.133
same,increase in dead-cell fraction,[10]; 0.0001 µM,-0.0053
same,increase in dead-cell fraction,[10]; 0.0003162 µM,0.002
same,increase in dead-cell fraction,[10]; 0.001 µM,-0.0003
same,increase in dead-cell fraction,[10]; 0.003162 µM,-0.0311
same,increase in dead-cell fraction,[10]; 0.01 µM,0.0109
same,increase in dead-cell fraction,[10]; 0.03162 µM,0.0036
same,increase in dead-cell fraction,[10]; 0.1 µM,0.066
same,increase in dead-cell fraction,[10]; 0.3162 µM,0.128
same,increase in dead-cell fraction,[10]; 1 µM,0.088
same,increase in dead-cell fraction,[11]; 0.001 µM,0.0017
same,increase in dead-cell fraction,[11]; 0.003162 µM,0.0045
same,increase in dead-cell fraction,[11]; 0.01 µM,0.0025
same,increase in dead-cell fraction,[11]; 0.03162 µM,0.0166
same,increase in dead-cell fraction,[11]; 0.1 µM,0.02
same,increase in dead-cell fraction,[11]; 0.3162 µM,0.0336
same,increase in dead-cell fraction,[11]; 1 µM,0.0207
same,increase in dead-cell fraction,[11]; 3.162 µM,0.049
same,increase in dead-cell fraction,[11]; 10 µM,0.0763
same,increase in dead-cell fraction,[12]; 0.0003162 µM,0.0137
same,increase in dead-cell fraction,[12]; 0.001 µM,-0.0003
same,increase in dead-cell fraction,[12]; 0.003162 µM,0.0115
same,increase in dead-cell fraction,[12]; 0.01 µM,0.0189
same,increase in dead-cell fraction,[12]; 0.03162 µM,0.0085
same,increase in dead-cell fraction,[12]; 0.1 µM,0.0163
same,increase in dead-cell fraction,[12]; 0.3162 µM,0.0112
same,increase in dead-cell fraction,[12]; 1 µM,0.0306
same,increase in dead-cell fraction,[12]; 3.162 µM,0.0531
